Assay results as given in paper PMC5656653, “Evaluation of Ga-DOTA-(D-Asp)n as bone imaging agents: D-aspartic acid peptides as carriers to bone” (Scientific Reports, 2017).
Read-outs that look alike come from different tables or passages of the source. Where a SMILES comes first, the peptide text is derived from it. [ ]: non-standard residue; d: D form. The star is where a group is joined. DOTA = O=C(O)CN1CCN(CC(=O)O)CCN(CC(=O)*)CCN(CC(=O)O)CC1

Legend:
[1] = Urine analyses by RP-HPLC after i.v. injection; assay type: in vivo; conditions: mice, urine from bladder at 1 h post-injection
Protocol: ^67Ga-DOTA-(L-Asp)14 was prepared according to a method described previously. ^67Ga-DOTA-(L-Asp)14 or ^67Ga-DOTA-(D-Asp)14 solution (370 kBq / 200 μL) was intravenously injected to 6-week-old male ddY mice. At 1 h post-injection, mice were sacrificed and their […] were taken from the bladders. After ultrafiltration (Microcon-30, Merck KGaA), the filtrate samples were analyzed by RP-HPLC at a flow rate of 1 mL/min with a gradient mobile phase from water containing 0.1% TFA to 20% methanol in water containing 0.1% TFA for 20 min.

[2] = Biodistribution experiments in normal mice after i.v. injection; assay type: in vivo; conditions: i.v.; for tissue uptake dose at 10 min / tissue uptake dose at 1 h / tissue uptake dose at 3 h: male, ddY, mouse, in vivo, iv, total radioactivity; for tissue uptake dose at 10 min / tissue uptake dose at 1 h / tissue uptake dose at 3 h / F/B ratio (Femur:blood ratio): mice, mean (SD)
Method in brief: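 Male ddY mice (6 weeks, 27–32 g) received tracer i.v. (37–740 kBq/100 μL); 4–5 per group sacrificed at 10, 60 and 180 min. Weighed tissues and whole left femur (bone) gamma-counted with background and decay correction.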

SMILES: O=C(O)C[C@@H](NC(=O)[C@@H](CC(=O)O)NC(=O)[C@@H](CC(=O)O)NC(=O)[C@@H](CC(=O)O)NC(=O)[C@@H](CC(=O)O)NC(=O)[C@@H](CC(=O)O)NC(=O)[C@@H](CC(=O)O)NC(=O)[C@@H](CC(=O)O)NC(=O)[C@@H](CC(=O)O)NC(=O)[C@@H](CC(=O)O)NC(=O)[C@@H](CC(=O)O)NC(=O)[C@@H](CC(=O)O)NC(=O)[C@@H](CC(=O)O)NC(=O)[C@@H](CC(=O)O)NC(=O)CN1CCN(CC(=O)O)CCN(CC(=O)O)CCN(CC(=O)O)CC1)C(=O)O [^67Ga-DOTA-(D-Asp)14, metal not drawn] ({DOTA}-[dD][dD][dD][dD][dD][dD][dD][dD][dD][dD][dD][dD][dD][dD]-OH)
- Ratio of the intact complex in urine [1]: 85.8 ± 17.4%
- tissue uptake dose at 10 min ([2]; 10 min after injection, footnote b, read-out: Biodistribution of radioactivity, Stomach): 0.28 %ID
- tissue uptake dose at 10 min ([2]; 10 min after injection, read-out: Biodistribution of radioactivity, Blood): 2.46 %ID
- tissue uptake dose at 10 min ([2]; 10 min after injection, read-out: Biodistribution of radioactivity, Bone (Femur)): 11.9 %ID
- tissue uptake dose at 10 min ([2]; 10 min after injection, read-out: Biodistribution of radioactivity, Brain): 0.06 %ID
- tissue uptake dose at 10 min ([2]; 10 min after injection, read-out: Biodistribution of radioactivity, Heart): 0.94 %ID
- tissue uptake dose at 10 min ([2]; 10 min after injection, read-out: Biodistribution of radioactivity, Kidney): 8.15 %ID
- tissue uptake dose at 10 min ([2]; 10 min after injection, read-out: Biodistribution of radioactivity, Large-intestine): 0.4 %ID
- tissue uptake dose at 10 min ([2]; 10 min after injection, read-out: Biodistribution of radioactivity, Liver): 0.51 %ID
- tissue uptake dose at 10 min ([2]; 10 min after injection, read-out: Biodistribution of radioactivity, Lung): 1.75 %ID
- tissue uptake dose at 10 min ([2]; 10 min after injection, read-out: Biodistribution of radioactivity, Muscle): 0.77 %ID
- tissue uptake dose at 10 min ([2]; 10 min after injection, read-out: Biodistribution of radioactivity, Pancreas): 0.88 %ID
- tissue uptake dose at 10 min ([2]; 10 min after injection, read-out: Biodistribution of radioactivity, Small-intestine): 0.55 %ID
- tissue uptake dose at 10 min ([2]; 10 min after injection, read-out: Biodistribution of radioactivity, Spleen): 0.48 %ID
- tissue uptake dose at 1 h ([2]; 60 min after injection, footnote b, read-out: Biodistribution of radioactivity, Stomach): 0.07 %ID
- tissue uptake dose at 1 h ([2]; 60 min after injection, read-out: Biodistribution of radioactivity, Blood): 0.09 %ID
- tissue uptake dose at 1 h ([2]; 60 min after injection, read-out: Biodistribution of radioactivity, Bone (Femur)): 13 %ID
- tissue uptake dose at 1 h ([2]; 60 min after injection, read-out: Biodistribution of radioactivity, Brain): 0.01 %ID
- tissue uptake dose at 1 h ([2]; 60 min after injection, read-out: Biodistribution of radioactivity, Heart): 0.18 %ID
- tissue uptake dose at 1 h ([2]; 60 min after injection, read-out: Biodistribution of radioactivity, Kidney): 1.21 %ID
- tissue uptake dose at 1 h ([2]; 60 min after injection, read-out: Biodistribution of radioactivity, Large-intestine): 0.1 %ID
- tissue uptake dose at 1 h ([2]; 60 min after injection, read-out: Biodistribution of radioactivity, Liver): 0.15 %ID
- tissue uptake dose at 1 h ([2]; 60 min after injection, read-out: Biodistribution of radioactivity, Lung): 0.28 %ID
- tissue uptake dose at 1 h ([2]; 60 min after injection, read-out: Biodistribution of radioactivity, Muscle): 0.16 %ID
- tissue uptake dose at 1 h ([2]; 60 min after injection, read-out: Biodistribution of radioactivity, Pancreas): 0.27 %ID
- tissue uptake dose at 1 h ([2]; 60 min after injection, read-out: Biodistribution of radioactivity, Small-intestine): 0.18 %ID
- tissue uptake dose at 1 h ([2]; 60 min after injection, read-out: Biodistribution of radioactivity, Spleen): 0.12 %ID
- tissue uptake dose at 3 h ([2]; 180 min after injection, footnote b, read-out: Biodistribution of radioactivity, Stomach): 0.06 %ID
- tissue uptake dose at 3 h ([2]; 180 min after injection, read-out: Biodistribution of radioactivity, Blood): 0.03 %ID
- tissue uptake dose at 3 h ([2]; 180 min after injection, read-out: Biodistribution of radioactivity, Bone (Femur)): 14.8 %ID
- tissue uptake dose at 3 h ([2]; 180 min after injection, read-out: Biodistribution of radioactivity, Brain): 0.01 %ID
- tissue uptake dose at 3 h ([2]; 180 min after injection, read-out: Biodistribution of radioactivity, Heart): 0.11 %ID
- tissue uptake dose at 3 h ([2]; 180 min after injection, read-out: Biodistribution of radioactivity, Kidney): 0.54 %ID
- tissue uptake dose at 3 h ([2]; 180 min after injection, read-out: Biodistribution of radioactivity, Large-intestine): 0.2 %ID
- tissue uptake dose at 3 h ([2]; 180 min after injection, read-out: Biodistribution of radioactivity, Liver): 0.05 %ID
- tissue uptake dose at 3 h ([2]; 180 min after injection, read-out: Biodistribution of radioactivity, Lung): 0.03 %ID
- tissue uptake dose at 3 h ([2]; 180 min after injection, read-out: Biodistribution of radioactivity, Muscle): 0.16 %ID
- tissue uptake dose at 3 h ([2]; 180 min after injection, read-out: Biodistribution of radioactivity, Pancreas): 0.14 %ID
- tissue uptake dose at 3 h ([2]; 180 min after injection, read-out: Biodistribution of radioactivity, Small-intestine): 0.12 %ID
- tissue uptake dose at 3 h ([2]; 180 min after injection, read-out: Biodistribution of radioactivity, Spleen): 0.12 %ID
- F/B ratio (Femur:blood ratio) ([2]; 10 min after injection): 4.90 (0.70)
- F/B ratio (Femur:blood ratio) ([2]; 60 min after injection): 180.99 (91.94)
- F/B ratio (Femur:blood ratio) ([2]; 180 min after injection): 526.37 (130.49)
- Accumulation of radioactivity in bone (in words) ([2]; normal mice): high accumulation and retention of radioactivity in bone
- Radioactivity in the kidneys (in words) ([2]; normal mice): extremely low accumulation of radioactivity in the kidneys
